Several values for one entry are separate records, joined by “and”; a condition that tells them apart may be missing. Equal entries are not always repeated.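 Growth conditions: 96-well plates. Treatment: test compound, 48 hours, 5 concentrations. Analysis: linear interpolation between bracketing concentrations; unreached endpoints set to highest concentration. The concentration for 50% growth inhibition is given as GI50. Definition used: TGI = concentration required for complete inhibition of growth.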

Some test systems named below: MDA-MB-435; MDA-N; MDA-MB-231 breast; T-47D breast; PC-3 prostate; NCI/ADR-RES ovarian.
What all share (test): NCI-60 cell line screen, 48 h

As for `CN(C)CCNC(=O)Cn1ccc(=O)c2c([N+](=O)[O-])cccc21`, the TGI in the experiment with MDA-MB-435, in the experiment on MDA-N, in the experiment on MDA-MB-231 breast, in the experiment on T-47D breast and in the experiment on PC-3 prostate was above 100 µM each time.
`CC(=O)c1ccc(O)c(CN(C2CCCCC2)C2CCCCC2)c1O`: the TGI with MDA-MB-435, with NCI/ADR-RES ovarian, in the experiment with MDA-N, in the experiment with MDA-MB-231 breast, with T-47D breast and in the experiment on PC-3 prostate was above 100 µM each time.
Regarding `N#CNC(N)=Nc1ccc(Cl)cc1`, the TGI with MDA-MB-435, with NCI/ADR-RES ovarian, in the experiment with MDA-N, in the experiment on MDA-MB-231 breast, in the experiment with T-47D breast and in the experiment on PC-3 prostate was above 100 µM in each case.
With `CC(=O)/C(=C/c1ccccc1F)C(=O)c1ccccc1`, the TGI is above 100 µM with MDA-MB-435; above 100 µM with NCI/ADR-RES ovarian; above 100 µM with MDA-N; 92.5 µM with MDA-MB-231 breast; above 100 µM in the experiment with T-47D breast; above 100 µM with PC-3 prostate.
Take `O=c1cc(/C=C/c2ccccc2)[nH]c2cc3c(cc12)OCO3`: the TGI was 4.29 µM in the experiment with MDA-MB-435; 5.38 µM in the experiment on NCI/ADR-RES ovarian; 6.23 µM with MDA-N; 9.18 µM in the experiment with MDA-MB-231 breast; 17.3 µM in the experiment with T-47D breast.
On to `CCN(C(=O)/C=C/c1ccco1)c1ccccc1`, for which the TGI with MDA-MB-435, in the experiment with NCI/ADR-RES ovarian, with MDA-N, in the experiment with MDA-MB-231 breast, in the experiment on T-47D breast and in the experiment on PC-3 prostate was above 100 µM throughout.
For `CC(NC(=O)N(C)C)NC(=O)N(C)C`, the TGI in the experiment on MDA-MB-435, in the experiment with NCI/ADR-RES ovarian, with MDA-N, with MDA-MB-231 breast, with T-47D breast and with PC-3 prostate was above 10 µM in each case.
For the compound `O=C(O)c1ccccc1/C=N/N=C1c2ccccc2-c2ccccc21`, the TGI in the experiment with MDA-MB-435 is above 100 µM; in the experiment with NCI/ADR-RES ovarian, above 100 µM; in the experiment on MDA-N, above 100 µM; with MDA-MB-231 breast it was above 100 µM; in the experiment on T-47D breast it was above 100 µM; in the experiment on PC-3 prostate, 83.4 µM.
For the compound `O=C(Nc1ccc(Cl)c(Cl)c1)NS(=O)(=O)c1cnccc1Oc1ccc(F)cc1`, the GI50 was 2.98 µM with MDA-MB-435; 4.38 µM with NCI/ADR-RES ovarian; 5.5 µM in the experiment on MDA-MB-231 breast; 2.8 µM in the experiment on T-47D breast; 3.25 µM in the experiment on PC-3 prostate. The TGI in the experiment on MDA-MB-435 is 12.2 µM; in the experiment on NCI/ADR-RES ovarian it was above 100 µM; in the experiment with MDA-MB-231 breast it was 38.5 µM; in the experiment on T-47D breast, 8.54 µM; in the experiment on PC-3 prostate it was above 100 µM.
On to `C[C@H]1CCCC(O)C(O)[C@@H]2C[C@H](O[Si](C)(C)C(C)(C)C)C[C@H]2[C@H](O[Si](C)(C)C(C)(C)C)C(O)C(O)C(=O)O1` (some centres not stated), for which the GI50 in the experiment on MDA-MB-435 is above 100 µM; with NCI/ADR-RES ovarian, 27.2 µM; in the experiment with MDA-N, above 100 µM; in the experiment on MDA-MB-231 breast, 14.2 µM; in the experiment with T-47D breast, 28.4 µM; in the experiment with PC-3 prostate, 46.1 µM. Also, the TGI was above 100 µM in the experiment with MDA-MB-435; above 100 µM in the experiment on NCI/ADR-RES ovarian; above 100 µM with MDA-N; 38.5 µM in the experiment on MDA-MB-231 breast; above 100 µM in the experiment with T-47D breast; above 100 µM in the experiment with PC-3 prostate.
As for `COc1ccc(OC)c(Cn2cc3c(c2-c2ccccc2)CCc2cnoc2-3)c1`, the GI50 was 2.18 µM in the experiment on MDA-MB-435; 2.48 µM in the experiment with NCI/ADR-RES ovarian; 5.98 µM in the experiment on MDA-MB-231 breast; 18.1 µM in the experiment with T-47D breast; 8.73 µM in the experiment with PC-3 prostate. Further, the TGI was 9.11 µM in the experiment with MDA-MB-435; 7.55 µM with NCI/ADR-RES ovarian; above 100 µM with MDA-MB-231 breast; above 100 µM in the experiment with T-47D breast; above 100 µM in the experiment with PC-3 prostate.
For the compound `CC(=O)O[C@H]1CCc2c(cc(N)c3c2C(=O)C[C@]2(C)C([C@H](C)CCCC(C)C)CCC32C)C1(C)C` (some centres not stated), the TGI in the experiment on MDA-MB-435, in the experiment with NCI/ADR-RES ovarian, in the experiment on MDA-N, with MDA-MB-231 breast, with T-47D breast and in the experiment on PC-3 prostate was above 100 µM each time.
Take `Nc1ccc(/C=C/C(=O)NCc2cc3cc(-c4ccc(C(=O)N5CCC(F)(F)CC5)cc4)cc(-c4ccc(F)cc4)c3o2)cn1`: the GI50 in the experiment on MDA-MB-435 is 0.752 µM; in the experiment on NCI/ADR-RES ovarian, 4.91 µM; in the experiment with MDA-MB-231 breast, 15.1 µM; in the experiment with T-47D breast it was 0.784 µM; in the experiment on PC-3 prostate, 0.534 µM. Further, the TGI in the experiment with MDA-MB-435, in the experiment on NCI/ADR-RES ovarian, in the experiment with MDA-MB-231 breast, in the experiment with T-47D breast and in the experiment on PC-3 prostate was above 100 µM in each case.
For `N#Cc1ccc(NC(=O)C(CC(=O)OCc2ccccc2)NC(=O)OCc2ccccc2)cc1` (configuration not stated), the GI50 in the experiment on MDA-MB-435, in the experiment on NCI/ADR-RES ovarian, with MDA-N, in the experiment with MDA-MB-231 breast and in the experiment on PC-3 prostate was above 100 µM throughout. Moreover, the TGI in the experiment with MDA-MB-435, with NCI/ADR-RES ovarian, in the experiment with MDA-N, in the experiment with MDA-MB-231 breast and in the experiment with PC-3 prostate was above 100 µM in each case.
On to `O=S(=O)(NCCCNc1nccc(-c2c(-c3ccc(F)cc3)nc3sccn23)n1)c1ccc2ccccc2c1`, for which the GI50 with MDA-MB-435 was 3.67 µM; in the experiment with NCI/ADR-RES ovarian, 3.89 µM; in the experiment on MDA-MB-231 breast it was 3.8 µM; in the experiment on T-47D breast, 2.85 µM; with PC-3 prostate, 4.36 µM. For the same compound, the TGI in the experiment on MDA-MB-435, with NCI/ADR-RES ovarian, in the experiment with MDA-MB-231 breast, in the experiment on T-47D breast and in the experiment with PC-3 prostate was above 100 µM in each case.
Take `CCC1=CC2CN(C1)Cc1c([nH]c3ccccc13)[C@@](C(=O)OC)(c1cc3c(cc1OC)N(C)[C@H]1[C@@](O)(C(=O)OC)[C@H](OC(C)=O)[C@]4(CC)C=CCN5CC[C@]31[C@@H]54)C2` (some centres not stated): the GI50 in the experiment with MDA-MB-435 was below 0.005 µM; in the experiment with NCI/ADR-RES ovarian it was 1.05 µM and 1.85 µM; with MDA-MB-231 breast, 0.0182 µM and 0.0211 µM; in the experiment with T-47D breast it was 0.00507 µM; in the experiment on PC-3 prostate, below 0.005 µM. Further, the TGI in the experiment with MDA-MB-231 breast was 5.74 µM and 0.873 µM; with T-47D breast it was 50 µM; with PC-3 prostate it was 32.6 µM and > 100 µM.
For the compound `COC(=O)C(/C(=N\O)C(=O)Nc1cccc(Cl)c1C)c1cnc2ccccc2n1` (configuration not stated), the TGI in the experiment with MDA-MB-435, with NCI/ADR-RES ovarian, in the experiment with MDA-N, in the experiment with MDA-MB-231 breast, with T-47D breast and in the experiment on PC-3 prostate was above 100 µM each time.
With `O=c1c(F)cn(Cc2ccccc2CCl)c(=O)n1Cc1ccccc1CCl`, the GI50 with MDA-MB-435 was 1.68 µM; with NCI/ADR-RES ovarian, 2.97 µM; in the experiment with MDA-MB-231 breast it was 1.93 µM; in the experiment with T-47D breast, 1.57 µM; in the experiment on PC-3 prostate, 2.54 µM. Further, the TGI amounted to 3.4 µM in the experiment on MDA-MB-435; 11.8 µM with NCI/ADR-RES ovarian; 4.92 µM in the experiment with MDA-MB-231 breast; 4.11 µM in the experiment on T-47D breast; 8.83 µM with PC-3 prostate.
Consider `CNC(=O)c1nn(C)c2c1C(C)(C)Cc1cnc(Nc3ccc(N4CCN(C)CC4)cc3)nc1-2`, for which the GI50 in the experiment with MDA-MB-435 was 0.693 µM; in the experiment with NCI/ADR-RES ovarian, 3 µM; in the experiment on MDA-MB-231 breast, 0.523 µM; in the experiment on T-47D breast, 0.261 µM; in the experiment on PC-3 prostate, 0.368 µM. Further, the TGI with MDA-MB-435 was above 10 µM; in the experiment on NCI/ADR-RES ovarian, above 10 µM; in the experiment on MDA-MB-231 breast, above 10 µM; in the experiment with T-47D breast it was above 5.55 µM; with PC-3 prostate, above 10 µM.
Consider `CCOC(=O)/C(C#N)=C\C=C(/Cl)c1ccc(Cl)cc1`, for which the GI50 was 10.5 µM in the experiment on MDA-MB-435; 22 µM with NCI/ADR-RES ovarian; 22.1 µM with MDA-MB-231 breast; 2.83 µM in the experiment with T-47D breast; 15 µM in the experiment on PC-3 prostate. Moreover, the TGI amounted to 32.9 µM in the experiment on MDA-MB-435; 44.6 µM in the experiment with NCI/ADR-RES ovarian; 45.9 µM with MDA-MB-231 breast; 10.7 µM in the experiment with T-47D breast; 33.5 µM in the experiment with PC-3 prostate.
As for `CCCCn1c(-c2ccc(C(=O)O/N=C(\N)c3ccc4c(c3)OCO4)cc2)nc(-c2ccccc2)c1-c1ccccc1`, the GI50 was 1.93 µM in the experiment with MDA-MB-435; 1.52 µM in the experiment on NCI/ADR-RES ovarian; 2.99 µM in the experiment with MDA-MB-231 breast; 1.85 µM with T-47D breast; 2.59 µM in the experiment with PC-3 prostate. Moreover, the TGI in the experiment on MDA-MB-435 was 3.9 µM; in the experiment on NCI/ADR-RES ovarian it was 4.48 µM; in the experiment on MDA-MB-231 breast, above 100 µM; with T-47D breast it was 4.95 µM; in the experiment on PC-3 prostate, above 100 µM.
`O=C(N/N=C/c1ccccc1O)c1ccccc1`: the GI50 in the experiment on MDA-MB-435 was 4.68 µM; with NCI/ADR-RES ovarian, 1.94 µM; with MDA-MB-231 breast it was 5.11 µM; in the experiment on T-47D breast, 0.457 µM; with PC-3 prostate it was 6.53 µM. Further, the TGI in the experiment with MDA-MB-435 was above 100 µM; with NCI/ADR-RES ovarian, 27.6 µM; with MDA-MB-231 breast, above 100 µM; with T-47D breast it was above 100 µM; in the experiment with PC-3 prostate it was above 100 µM.
Consider `C=C1C(=O)O[C@H]2[C@H]1CC/C(C=Nc1c(N)cc(C(F)(F)F)cc1Br)=C\CC[C@@]1(C)O[C@@H]21`, for which the GI50 is 1.86 µM with MDA-MB-435; 2.31 µM with NCI/ADR-RES ovarian; 1.33 µM in the experiment with MDA-MB-231 breast; 1.45 µM with T-47D breast; 1.5 µM in the experiment on PC-3 prostate. Besides, the TGI in the experiment on MDA-MB-435 is 5.74 µM; with MDA-MB-231 breast it was 3.15 µM; in the experiment with T-47D breast, 3.42 µM; in the experiment with PC-3 prostate it was 3.85 µM.

These data come from PubChem BioAssay (NCI).
